In paper PMC11111636 (EJNMMI Radiopharmacy and Chemistry, 2024):

Key:
[1] = test system: U2OS.SSTR2 cells; experiment: Uptake/internalization studies in U2OS.SSTR2 cells; assay type: cell-based, human
Method: Cells were seeded in 6-well plates 24 h before the experiment (7 × 10^5 cells/well). […] The membrane-bound fraction was collected by incubating cells with an acid buffer (50 mM glycine, 100 mM NaCl, pH 2.8) for 10 min at rt. The internalized fraction was determined by lysing the cells with 1 M NaOH for 5 min at rt. Both fractions were measured in a gamma counter, and data were analyzed in GraphPad Prism v9 and expressed as percentage of added dose.

[2] = Ex vivo biodistribution in H69-tumor bearing mice; conditions: mouse, in vivo
Method: (§1) Six-week‐old female Balb/c nu/nu‐specific mice (Janvier Labs, Le Genest‐Saint‐Isle, France) were housed in individually ventilated cages (4 mice/cage). Upon arrival, mice were acclimated for one week, with access to food and water ad libitum. Mice were subcutaneously inoculated on the right shoulder with NCI-H69 cells (5 × 10^6 cells) suspended in 100 μL of 1/3 Matrigel (Corning Inc.; Corning, NY, USA) and 2/3 Hank’s balanced salt solution (Gibco; Paisley, UK). NCI-H69 xenografts were allowed to grow for 2 weeks.
(§2) At 3 selected time points (1, 4 and 24 h; n = 4) p.i., blood was collected via retro-orbital puncture under isoflurane/O2 anesthesia, after which the mice were sacrificed via cervical dislocation. The tumor and organs of interest (heart, lungs, liver, spleen, stomach, large intestine, small intestine, pancreas, kidneys, muscle, skin, bone) were excised, washed in PBS and blotted dry. […] To determine the total injected radioactivity per animal, a calibration curve with indium-111 was established using the gamma counter. The percentage of injected dose per gram (% ID/g) was determined for each tissue and corrected for both the injected activity and % ID present at the injection site (the tail). Then, the tumor and the organs were placed in a petri dish and ex vivo optical imaging was performed with the IVIS Spectrum system (Perkin Elmer, Waltham, MA, USA) using the following settings for all measurements: FOV 19.5 cm, medium binning, f2, 60 s exposure with an excitation/emission filter of 646 nm/662 nm. Living Image version 4.5.2 software (Perkin Elmer) was used to perform data analysis by drawing regions of interest around the organ/tissue to quantify the radiant efficiency {(photons/second/cm^2/steradian)/(μW/cm^2)}.

[3] = test system: H69-xenograft Balb/c nu/nu mice; experiment: Ex vivo biodistribution in H69-tumor bearing mice; conditions: for Uptake in Tumor: i.v., n = 4
Method: as §1, §2

tissue uptake at 4 h ([2]; Uptake in Intestines, 4 h block (co-injected 50 nmol DOTA-TATE), n = 4): 0.57 ± 0.35 %ID/g | tissue uptake at 4 h ([2]; Uptake in Kidneys, 4 h block (co-injected 50 nmol DOTA-TATE), n = 4): 7.75 ± 1.03 %ID/g | tissue uptake at 4 h ([2]; Uptake in Liver, 4 h block (co-injected 50 nmol DOTA-TATE), n = 4): 0.15 ± 0.08 %ID/g | tissue uptake at 4 h ([2]; Uptake in Skin, 4 h block (co-injected 50 nmol DOTA-TATE), n = 4): 0.28 ± 0.13 %ID/g | tissue uptake at 4 h ([2]; Uptake in Stomach, 4 h block (co-injected 50 nmol DOTA-TATE), n = 4): 0.1 ± 0.03 %ID/g | tissue uptake at 1 h ([2]; iv, Uptake in Blood, 1 h p.i., n = 4): 0.41 ± 0.12 %ID/g | tissue uptake at 24 h ([2]; iv, Uptake in Blood, 24 h p.i., n = 4): 0.04 ± 0.03 %ID/g | tissue uptake at 4 h ([2]; iv, Uptake in Bones, 4 h p.i., n = 4): 0.13 ± 0.03 %ID/g | tissue uptake at 24 h ([2]; iv, Uptake in Bones, 24 h p.i., n = 4): 0.14 ± 0.05 %ID/g | tissue uptake at 1 h ([2]; iv, Uptake in Heart, 1 h p.i., n = 4): 0.16 ± 0.08 %ID/g | tissue uptake at 4 h ([2]; iv, Uptake in Heart, 4 h p.i., n = 4): 0.04 %ID/g | tissue uptake at 1 h ([2]; iv, Uptake in Intestines, 1 h p.i., n = 4): 0.74 ± 0.3 %ID/g | tissue uptake at 4 h ([2]; iv, Uptake in Intestines, 4 h p.i., n = 4): 0.77 ± 0.24 %ID/g | tissue uptake at 24 h ([2]; iv, Uptake in Intestines, 24 h p.i., n = 4): 0.13 ± 0.01 %ID/g | tissue uptake at 1 h ([2]; iv, Uptake in Kidneys, 1 h p.i., n = 4): 12.2 ± 1.33 %ID/g | tissue uptake at 4 h ([2]; iv, Uptake in Kidneys, 4 h p.i., n = 4): 10.6 ± 0.39 %ID/g | tissue uptake at 24 h ([2]; iv, Uptake in Kidneys, 24 h p.i., n = 4): 6.93 ± 1.02 %ID/g | tissue uptake at 1 h ([2]; iv, Uptake in Liver, 1 h p.i., n = 4): 0.21 ± 0.03 %ID/g | tissue uptake at 4 h ([2]; iv, Uptake in Liver, 4 h p.i., n = 4): 0.16 ± 0.01 %ID/g | tissue uptake at 24 h ([2]; iv, Uptake in Liver, 24 h p.i., n = 4): 0.08 ± 0.01 %ID/g | tissue uptake at 1 h ([2]; iv, Uptake in Lungs, 1 h p.i., n = 4): 0.86 ± 0.09 %ID/g | tissue uptake at 4 h ([2]; iv, Uptake in Lungs, 4 h p.i., n = 4): 0.52 ± 0.13 %ID/g | tissue uptake at 4 h ([2]; iv, Uptake in Muscle, 4 h p.i., n = 4): 0.02 %ID/g | tissue uptake at 24 h ([2]; iv, Uptake in Muscle, 24 h p.i., n = 4): 0.01 ± 0.01 %ID/g | tissue uptake at 1 h ([2]; iv, Uptake in Pancreas, 1 h p.i., n = 4): 2.9 ± 0.6 %ID/g | tissue uptake at 4 h ([2]; iv, Uptake in Pancreas, 4 h p.i., n = 4): 1.3 ± 0.1 %ID/g | tissue uptake at 24 h ([2]; iv, Uptake in Pancreas, 24 h p.i., n = 4): 0.6 ± 0.05 %ID/g | tissue uptake at 1 h ([2]; iv, Uptake in Skin): 0.49 ± 0.26 %ID/g | tissue uptake at 4 h ([2]; iv, Uptake in Skin, 4 h p.i., n = 4): 0.29 ± 0.09 %ID/g | tissue uptake at 24 h ([2]; iv, Uptake in Skin, 24 h p.i., n = 4): 0.13 ± 0.02 %ID/g | tissue uptake at 24 h ([2]; iv, Uptake in Spleen): 0.11 ± 0.01 %ID/g | tissue uptake at 4 h ([2]; iv, Uptake in Spleen, 4 h p.i., n = 4): 0.13 ± 0.02 %ID/g | tissue uptake at 1 h ([2]; iv, Uptake in Stomach, 1 h p.i., n = 4): 1.84 ± 0.18 %ID/g | tissue uptake at 4 h ([2]; iv, Uptake in Stomach, 4 h p.i., n = 4): 1.23 ± 0.16 %ID/g | tissue uptake at 24 h ([2]; iv, Uptake in Stomach, 24 h p.i., n = 4): 0.51 ± 0.13 %ID/g | tissue uptake at 1 h ([2]; iv, Uptake in Tumor, 1 h p.i., n = 4): ~5 %ID/g | tissue uptake at 4 h ([2]; iv, Uptake in Tumor, 4 h p.i., n = 4): 5.47 ± 0.3 %ID/g | tissue uptake at 24 h ([2]; iv, Uptake in Tumor, 24 h p.i., n = 4): ~3 %ID/g | Uptake in Tumor ([3]; 1 h p.i.): 5.55 ± 1.31 % ID/g | Uptake in Tumor ([3]; 24 h p.i.): 3.19 ± 0.29 % ID/g
Structure (SMILES): C[C@@H](O)[C@H](NC(=O)[C@@H]1CSSC[C@H](NC(=O)[C@@H](Cc2ccccc2)NC(=O)CN2CCN(CC(=O)O)CCN(CC(=O)O)CCN(CC(=O)O)CC2)C(=O)N[C@@H](Cc2ccc(O)cc2)C(=O)N[C@H](Cc2c[nH]c3ccccc23)C(=O)N[C@@H](CCCCN)C(=O)N[C@@H]([C@@H](C)O)C(=O)N1)C(=O)O [[^111In]In-DOTA-TATE, metal not drawn, reference compound]
Internalized fraction of radioactivity ([1]; 10^-9 M, 90 min, 37 °C): 94% | Total uptake ([1]; 10^-9 M, 90 min, 37 °C, % of added dose per 1,000,000 cells, n = 3): 46.22 ± 4.58 % AD | Cell uptake with excess of unlabeled DOTA-TATE ([1]; 50-fold excess DOTA-TATE): almost completely blocked | Tumor uptake reduction by co-injection of an excess of DOTA-TATE ([3]; 4 h p.i., compared to the unblocked group): 98%
